Source: patent US20250051338A1, “TYK2 DEGRADERS AND USES THEREOF” (Kymera Therapeutics, Inc., priority 2021, published 2025)

What was measured:
Type in all cases: cell-based
TYK2 [1] = target: T1, TYK2 (Homo sapiens, UniProt P29597); assay: TYK2 degradation MSD assay in human PBMC cells; design: endogenous in cells; host or cells: human PBMC; conditions: 4 to 24 hours incubation, read-out: TYK2 MSD DC50 rating in human PBMC
Procedure: (§1) Example 3. TYK2 Degradation MSD Assay in EBV-B, OCI-LY10, and Human PBMC Cells
(§2) Degradation of TYK2 in cells was quantitatively measured using Meso Scale Discovery (MSD) technology. EBV-B, OCI-LY10 or human PBMC cells were seeded in 96-well plates with a density of 0.4 million cells per well in 100 μl fresh media. Compounds were then added to the assay plates with a final top concentration of 1 to 10 μM in a 1:3 dilution series with total of 9 doses. The assay plates were then incubated for 4 to 24 hours at 37° C. under 5% CO2. The assay plates were then centrifuged for 5 minutes, and the cell pellets were treated with 100 μl/well RIPA lysis buffer (Boston Bioproducts, BP-115D) with protease and phosphatase inhibitors (Roche, 05892791001 and 04906837001). To prepare MSD assay plates (MSD, L15XA), the plates were coated with the capture antibody (Santa Cruz Biotechnology, SC-5271) in PBS, at 40 μl/well. The plates were then incubated overnight at 4° C., washed 3 times with 150 μl/well TBST buffer (Cell Signaling Technology, 9997S) and blocked with 150 μl/well blocking buffer (MSD, R93BA-4). Cell lysates were then added to MSD assay plates and the plates were incubated at room temperature for 1 hour. The plates were then washed 3 times with 150 μl/well TBST buffer and 25 μl/well primary detection antibody (Cell Signaling Technology, #9312). The assay plates were then incubated at room temperature for 1 hour, washed 3 times with 150 μl/well TBST buffer, and 25 μl/well secondary detection antibody, SULFO-TAG anti-rabbit antibody (MSD, R32AB-1) were added. The assay plates were then incubated at room temperature for 1 hour, washed 3 times with 150 μl/well TBST buffer, and 150 μl/well MSD reading buffer (MSD, R92TC-2) were added. The plates were then analyzed by an MSD reader. The data was analyzed by GraphPad Prism and the dose dependent TYK2 degradation was fit using the four-parameter inhibitor vs. response nonlinear regression. The DC50 data were measured and categorized into different levels in Table H. The compound with DC50 less than or equal to 1 nM is marked as A, with DC50 more than 1 nM and less than or equal to 10 nM is marked as B, with DC50 more than 10 nM and less than or equal to 100 nM is marked as C, and with DC50 more than 100 nM or not available is marked as D.

TYK2 [2] = target: T1, TYK2; assay: TYK2 degradation MSD assay in EBV-B cells; design: endogenous in cells; host or cells: EBV-B cells; conditions: 4 to 24 hours incubation, read-out: TYK2 MSD DC50 rating in EBV-B
Procedure: as §1, §2

TYK2 [3] = target: T1, TYK2; assay: TYK2 degradation MSD assay in OCI-LY10 cells; design: endogenous in cells; host or cells: EBV-B cells; conditions: 4 to 24 hours incubation, read-out: TYK2 MSD DC50 rating in OCI-LY10
Procedure: as §1, §2

T1 sequence (P29597 whole entry): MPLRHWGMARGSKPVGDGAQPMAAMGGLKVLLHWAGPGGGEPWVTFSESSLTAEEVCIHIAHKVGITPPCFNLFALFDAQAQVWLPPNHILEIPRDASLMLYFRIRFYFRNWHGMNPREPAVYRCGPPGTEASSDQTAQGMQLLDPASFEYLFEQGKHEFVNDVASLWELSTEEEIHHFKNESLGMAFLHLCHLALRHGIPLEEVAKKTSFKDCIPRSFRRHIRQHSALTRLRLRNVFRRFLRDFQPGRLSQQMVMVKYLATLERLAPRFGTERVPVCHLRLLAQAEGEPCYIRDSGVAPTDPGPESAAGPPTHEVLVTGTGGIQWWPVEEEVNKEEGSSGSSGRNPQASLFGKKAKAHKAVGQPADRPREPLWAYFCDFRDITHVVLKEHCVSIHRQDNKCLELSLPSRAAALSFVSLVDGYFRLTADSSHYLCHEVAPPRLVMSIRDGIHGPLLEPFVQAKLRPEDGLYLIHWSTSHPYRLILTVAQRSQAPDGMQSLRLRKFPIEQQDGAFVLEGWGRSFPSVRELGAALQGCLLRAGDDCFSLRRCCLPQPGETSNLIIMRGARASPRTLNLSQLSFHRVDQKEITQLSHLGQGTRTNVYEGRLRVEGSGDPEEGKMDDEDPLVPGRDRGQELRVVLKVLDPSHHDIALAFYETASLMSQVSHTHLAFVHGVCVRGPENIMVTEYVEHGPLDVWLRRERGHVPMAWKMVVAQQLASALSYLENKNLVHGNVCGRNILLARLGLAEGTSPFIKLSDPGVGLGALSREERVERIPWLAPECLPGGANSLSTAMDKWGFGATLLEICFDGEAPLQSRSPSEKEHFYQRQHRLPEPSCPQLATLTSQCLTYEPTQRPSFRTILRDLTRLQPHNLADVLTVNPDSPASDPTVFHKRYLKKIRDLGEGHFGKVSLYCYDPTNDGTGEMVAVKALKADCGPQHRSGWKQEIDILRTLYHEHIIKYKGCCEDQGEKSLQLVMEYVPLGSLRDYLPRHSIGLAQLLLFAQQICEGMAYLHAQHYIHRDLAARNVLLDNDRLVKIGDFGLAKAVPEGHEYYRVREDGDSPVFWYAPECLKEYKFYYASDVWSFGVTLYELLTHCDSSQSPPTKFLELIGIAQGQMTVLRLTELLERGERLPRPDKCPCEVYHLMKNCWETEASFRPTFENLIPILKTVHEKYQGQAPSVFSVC

SMILES	DC50 (TYK2 [1]) [nM]	DC50 (TYK2 [2]) [nM]	DC50 (TYK2 [3]) [nM]
CNC(=O)c1cnc(Nc2ccc(CN3CCN(Cc4ccc5c(c4)n(C)c(=O)n5C4CCC(=O)NC4=O)CC3)cn2)cc1Nc1cccc(-c2ncc(F)cn2)c1OC (stereo not drawn) [Example K194]	< 1	> 100	> 100
CNc1cc(Nc2cccc(CN(C)C3CCN(c4cccc5c4n(C)c(=O)n5C4CCC(=O)NC4=O)CC3)c2)nn2c(C(=O)NC3CC3)cnc12 (stereo not drawn) [Example K597]	> 100	> 100	> 100
CNC(=O)c1cnc(Nc2ccc(CN3CC(N(C)c4cccc5c4n(C)c(=O)n5C4CCC(=O)NC4=O)C3)cn2)cc1Nc1cccc(-c2ncc(F)cn2)c1OC (stereo not drawn) [Example K161]	> 100	1 to 10	> 100
CNc1cc(Nc2cccn(-c3cccc(C(=O)NCCCCc4ccc5c(c4)n(C)c(=O)n5C4CCC(=O)NC4=O)c3)c2=O)nn2c(C(=O)N[C@@H]3C[C@@H]3F)cnc12 (stereo partly drawn) [Example K219]	1 to 10	> 100	> 100
CNC(=O)c1cnc(Nc2ccc(CN3CCN(CC#Cc4ccc5c(c4)n(C)c(=O)n5C4CCC(=O)NC4=O)CC3)cn2)cc1Nc1cccc(-c2ncc(F)cn2)c1OC (stereo not drawn) [Example K701]	< 1	> 100	< 1
CNc1cc(Nc2cccc(-c3ccc(CNCc4ccc(N5CCC(N6CCC(c7ccc8c(c7)n(C)c(=O)n8C7CCC(=O)NC7=O)C6)CC5)cc4)cn3)c2)nn2c(C(=O)N[C@@H]3C[C@@H]3F)cnc12 (stereo partly drawn) [Example K461]	> 100	> 100	1 to 10
CNC(=O)c1cnc(Nc2ccc(CN3CCN(c4ccc5c(c4)n(C)c(=O)n5C4CCC(=O)NC4=O)CC3)cn2)cc1Nc1cccc(-c2ncc(F)cn2)c1OC (stereo not drawn) [Example K177]	< 1	< 1	> 100
O=C1CCN(c2cnc3cc(CCOCCOCCOCCOCCNc4cc(Nc5cccn(-c6ccccn6)c5=O)nn5c(C(=O)N[C@@H]6C[C@@H]6F)cnc45)ccn23)C(=O)N1 [Example K468]	10 to 100	> 100	> 100
Cn1c(=O)n(C2CCC(=O)NC2=O)c2ccc(CCCCCCCCNc3cc(Nc4cccn(-c5ccccn5)c4=O)nn4c(C(=O)N[C@@H]5C[C@@H]5F)cnc34)cc21 (stereo partly drawn) [Example K208]	> 100	> 100	> 100
CNc1cc(Nc2cccn(-c3ccc(C(=O)N4CCC(CN(C)c5ccc6c(c5)n(C)c(=O)n6C5CCC(=O)NC5=O)CC4)cn3)c2=O)nn2c(C(=O)N[C@@H]3C[C@@H]3F)cnc12 (stereo partly drawn) [Example K390]	< 1	> 100	> 100
CNc1cc(Nc2cccn(-c3ccc(C(=O)N4CCC5(CN(CC#Cc6ccc7c(c6)n(C)c(=O)n7C6CCC(=O)NC6=O)C5)C4)cn3)c2=O)nn2c(C(=O)N[C@@H]3C[C@@H]3F)cnc12 (stereo partly drawn) [Example K416]	> 100	> 100	> 100
CNc1cc(Nc2cccn(-c3ccc(C(=O)N4CCC5(CCN(c6ncc(C#Cc7ccc8c(c7)n(C)c(=O)n8C7CCC(=O)NC7=O)cn6)C5=O)C4)cn3)c2=O)nn2c(C(=O)N[C@@H]3C[C@@H]3F)cnc12 (stereo partly drawn) [Example K441]	> 100	> 100	< 1
Cn1c(=O)n(C2CCC(=O)NC2=O)c2cccc(CCCCNc3cc(Nc4cccn(-c5ccccn5)c4=O)nn4c(C(=O)N[C@@H]5C[C@@H]5F)cnc34)c21 (stereo partly drawn) [Example K205]	> 100	> 100	> 100
CNc1cc(Nc2cccc(-c3ccc(CN4CCC(c5ccc(-c6ccc7c(c6)n(C)c(=O)n7C6CCC(=O)NC6=O)cc5)CC4)cn3)c2)nn2c(C(=O)NC3CC3F)cnc12 (stereo not drawn) [Example K413]	> 100	> 100	< 1
CNc1cc(Nc2cccn(-c3ccc(C(=O)NC4CCC(CN(C)CC5CCN(Cc6ccc7c(c6)n(C)c(=O)n7C6CCC(=O)NC6=O)CC5)CC4)cn3)c2=O)nn2c(C(=O)N[C@@H]3C[C@@H]3F)cnc12 (stereo partly drawn) [Example K447]	> 100	> 100	< 1
